In patent US20230167073A1 (Teijin Pharma Limited, priority 2020, published 2023):

Biological target: T1, Human TRPC6 (Homo sapiens, UniProt Q9Y210)
T1 construct: expressed in transfected cells
T1 sequence (Q9Y210 1-931): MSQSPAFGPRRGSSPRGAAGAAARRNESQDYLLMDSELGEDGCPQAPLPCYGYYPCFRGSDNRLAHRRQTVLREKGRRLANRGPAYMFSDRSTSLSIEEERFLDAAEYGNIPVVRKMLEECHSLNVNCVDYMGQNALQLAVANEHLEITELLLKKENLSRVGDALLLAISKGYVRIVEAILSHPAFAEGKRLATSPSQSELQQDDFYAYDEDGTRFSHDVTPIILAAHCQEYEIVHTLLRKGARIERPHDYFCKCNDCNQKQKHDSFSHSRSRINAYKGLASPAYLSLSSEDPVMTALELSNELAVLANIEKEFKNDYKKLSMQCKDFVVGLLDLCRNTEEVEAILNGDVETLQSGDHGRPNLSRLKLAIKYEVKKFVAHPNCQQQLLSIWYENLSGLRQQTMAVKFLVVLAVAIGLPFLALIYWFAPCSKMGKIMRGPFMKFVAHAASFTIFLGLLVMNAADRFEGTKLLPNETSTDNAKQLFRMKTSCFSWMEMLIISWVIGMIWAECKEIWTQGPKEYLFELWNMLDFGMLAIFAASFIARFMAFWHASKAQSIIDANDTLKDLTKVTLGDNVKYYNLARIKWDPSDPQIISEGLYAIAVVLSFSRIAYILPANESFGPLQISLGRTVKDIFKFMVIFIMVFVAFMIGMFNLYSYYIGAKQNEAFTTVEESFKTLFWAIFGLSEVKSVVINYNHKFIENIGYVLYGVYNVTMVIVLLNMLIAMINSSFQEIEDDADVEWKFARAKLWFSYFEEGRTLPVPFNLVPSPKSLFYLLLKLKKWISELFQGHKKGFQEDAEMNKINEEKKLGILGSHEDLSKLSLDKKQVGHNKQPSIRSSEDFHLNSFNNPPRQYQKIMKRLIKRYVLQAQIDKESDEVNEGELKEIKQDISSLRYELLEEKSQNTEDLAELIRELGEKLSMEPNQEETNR
Assay: Evaluation of TRPC6 channel inhibitory activity (1), FLIPR Calcium 5 Assay Kit, OAG stimulation (Compound Nos. 1-1293)
Format: cell-based
Settings: Human TRPC6 stably-expressing cells, OAG 30 μM, FLIPR Calcium 5 Assay Kit; read-out: Inhibitory activity (pIC50 class) (converted)
In short: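 Stable human TRPC6 line; fluorescent Ca2+ dye loading, then 20 min compound exposure before 30 μM OAG trigger. Peak-minus-baseline signal converted to % inhibition against untreated and unstimulated wells; potency given as pIC50 band.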

First: Cc1nc(Oc2cc(C#N)ccc2-c2cnc(C(O)CN)s2)cc(-c2ccccc2)n1 (stereo not shown) [Compound 263, 4-[2-(2-amino-1-hydroxyethyl)-1,3-thiazol-5-yl]-3-(2-methyl-6-phenylpyrimidin-4-yl)oxybenzonitrile]
Second: Cc1nc(Oc2cc(C#N)ccc2-c2ncc(CCN)cn2)cc(-c2ccccc2)n1 [Compound 275, 4-[5-(2-aminoethyl)pyrimidin-2-yl]-3-(2-methyl-6-phenylpyrimidin-4-yl)oxybenzonitrile]
The IC50 of the first is higher: 10 to 1000 nM for the first, < 10 nM for the second.

`Cn1nc(C(F)(F)F)cc1Oc1cc(C#N)ccc1-c1ccc(CCN)cn1` [Compound 264, 4-[5-(2-aminoethyl)pyridin-2-yl]-3-[2-methyl-5-(trifluoromethyl)pyrazol-3-yl]oxybenzonitrile] and `CCc1cc(Oc2cc(C#N)ccc2-c2ccc(CCN)cn2)n(C)n1` [Compound 288, 4-[5-(2-aminoethyl)pyridin-2-yl]-3-(5-ethyl-2-methylpyrazol-3-yl)oxybenzonitrile] cannot be ordered by IC50: < 10 nM for the first, < 10 nM for the second.

Compared with `Cc1nc(Oc2cc(C#N)ccc2-n2cc([C@@H](O)CN)cn2)cc(OC2CCCC2)n1` [Compound 265, 4-[4-[(1R)-2-amino-1-hydroxyethyl]pyrazol-1-yl]-3-(6-cyclopentyloxy-2-methylpyrimidin-4-yl)oxybenzonitrile], `Cc1nc(Oc2cc(C#N)ccc2-n2cc([C@@H](O)CN)cn2)cc(OC2CCCCC2)n1` [Compound 266, 4-[4-[(1R)-2-amino-1-hydroxyethyl]pyrazol-1-yl]-3-(6-cyclohexyloxy-2-methylpyrimidin-4-yl)oxybenzonitrile] is lower in IC50: 10 to 1000 nM for the first, < 10 nM for the second.

First: Cc1nc(OCC(C)C)cc(Oc2cc(C#N)ccc2-n2cc([C@@H](O)CN)cn2)n1 [Compound 267, 4-[4-[(1R)-2-amino-1-hydroxyethyl]pyrazol-1-yl]-3-[2-methyl-6-(2-methylpropoxy)pyrimidin-4-yl]oxybenzonitrile]
Second: Cc1nc(OCC(F)(F)F)cc(Oc2cc(C#N)ccc2-n2cc([C@@H](O)CN)cn2)n1 [Compound 268, 4-[4-[(1R)-2-amino-1-hydroxyethyl]pyrazol-1-yl]-3-[2-methyl-6-(2,2,2-trifluoroethoxy)pyrimidin-4-yl]oxybenzonitrile]
The IC50 of the first is lower: < 10 nM for the first, 10 to 1000 nM for the second.

`Cc1nc(Oc2cc(C#N)ccc2-n2cc([C@@H](O)CN)cn2)cc(OC2CCC2)n1` [Compound 269, 4-[4-[(1R)-2-amino-1-hydroxyethyl]pyrazol-1-yl]-3-(6-cyclobutyloxy-2-methylpyrimidin-4-yl)oxybenzonitrile] and `Cc1nc(OCC2CCC2)cc(Oc2cc(C#N)ccc2-n2cc([C@@H](O)CN)cn2)n1` [Compound 270, 4-[4-[(1R)-2-amino-1-hydroxyethyl]pyrazol-1-yl]-3-[6-(cyclobutylmethoxy)-2-methylpyrimidin-4-yl]oxybenzonitrile] fall in the same range of IC50: 10 to 1000 nM for the first, 10 to 1000 nM for the second.

Compared with `Cc1nc(OCC2CC2(F)F)cc(Oc2cc(C#N)ccc2-n2cc([C@@H](O)CN)cn2)n1` (stereo partly drawn) [Compound 271, 4-[4-[(1R)-2-amino-1-hydroxyethyl]pyrazol-1-yl]-3-[6-[(2,2-difluorocyclopropyl)methoxy]-2-methylpyrimidin-4-yl]oxybenzonitrile], `Cc1nc(Oc2cc(C#N)ccc2-n2cc([C@@H](O)CNCC#N)cn2)cc(-c2ccccc2)n1` [Compound 279, 4-[4-[(1R)-2-(cyanomethylamino)-1-hydroxyethyl]pyrazol-1-yl]-3-(2-methyl-6-phenylpyrimidin-4-yl)oxybenzonitrile] is higher in IC50: 10 to 1000 nM for the first, > 1000 nM for the second.

`Cn1nc(C2CCC2)cc1Oc1cc(C#N)ccc1-c1ncc(CCN)cn1` [Compound 272, 4-[5-(2-aminoethyl)pyrimidin-2-yl]-3-(5-cyclobutyl-2-methylpyrazol-3-yl)oxybenzonitrile] and `Cn1nc(C2CCOCC2)cc1Oc1cc(C#N)ccc1-c1ncc(CCN)cn1` [Compound 273, 4-[5-(2-aminoethyl)pyrimidin-2-yl]-3-[2-methyl-5-(oxan-4-yl)pyrazol-3-yl]oxybenzonitrile] cannot be ordered by IC50: < 10 nM for the first, < 10 nM for the second.

`Cn1nc(-c2ccccc2)cc1Oc1cc(C#N)ccc1-c1ncc(CCN)cn1` [Compound 274, 4-[5-(2-aminoethyl)pyrimidin-2-yl]-3-(2-methyl-5-phenylpyrazol-3-yl)oxybenzonitrile] and `Cn1nc(-c2ccccn2)cc1Oc1cc(C#N)ccc1-c1ncc(CCN)cn1` [Compound 285, 4-[5-(2-aminoethyl)pyrimidin-2-yl]-3-(2-methyl-5-pyridin-2-ylpyrazol-3-yl)oxybenzonitrile] cannot be ordered by IC50: < 10 nM for the first, < 10 nM for the second.

`Cn1nc(C2CCC2)cc1Oc1cc(C#N)ccc1-c1ccc(C(O)CN)cn1` (stereo not shown) [Compound 276, 4-[5-(2-amino-1-hydroxyethyl)pyridin-2-yl]-3-(5-cyclobutyl-2-methylpyrazol-3-yl)oxybenzonitrile] and `Cn1nc(C2CCC2)cc1Oc1cc(C#N)ccc1-c1cnc(C(O)CN)cn1` (stereo not shown) [Compound 287, 4-[5-(2-amino-1-hydroxyethyl)pyrazin-2-yl]-3-(5-cyclobutyl-2-methylpyrazol-3-yl)oxybenzonitrile] cannot be ordered by IC50: < 10 nM for the first, < 10 nM for the second.

`N#Cc1ccc(-c2ncc(CCN)cn2)c(Oc2cnnc(-c3ccccc3)c2)c1` [Compound 277, 4-[5-(2-aminoethyl)pyrimidin-2-yl]-3-(6-phenylpyridazin-4-yl)oxybenzonitrile] and `Cn1nc(-c2ccccc2)cc1Oc1cc(C#N)ccc1-c1ccc(CN)cn1` [Compound 289, 4-[5-(aminomethyl)pyridin-2-yl]-3-(2-methyl-5-phenylpyrazol-3-yl)oxybenzonitrile] cannot be ordered by IC50: < 10 nM for the first, < 10 nM for the second.

Compared with `Cn1nc(C2CCC2)cc1Oc1cc(C#N)ccc1-c1ncc(C(O)CN)cn1` (stereo not shown) [Compound 278, 4-[5-(2-amino-1-hydroxyethyl)pyrimidin-2-yl]-3-(5-cyclobutyl-2-methylpyrazol-3-yl)oxybenzonitrile], `Cn1nc(C2CCC2)cc1Oc1cc(C#N)ccc1-c1ncc(C(O)CNCC#N)cn1` (stereo not shown) [Compound 281, 4-[5-[2-(cyanomethylamino)-1-hydroxyethyl]pyrimidin-2-yl]-3-(5-cyclobutyl-2-methylpyrazol-3-yl)oxybenzonitrile] is higher in IC50: < 10 nM for the first, > 1000 nM for the second.

`Cn1nc(C2CCC2)cc1Oc1cc(C#N)ccc1-c1ccc(C(O)CNCC#N)cn1` (stereo not shown) [Compound 280, 4-[5-[2-(cyanomethylamino)-1-hydroxyethyl]pyridin-2-yl]-3-(5-cyclobutyl-2-methylpyrazol-3-yl)oxybenzonitrile] and `Cn1nc(C2CC2)cc1Oc1cc(C#N)ccc1-c1ccc(CCNCC#N)cn1` [Compound 286, 4-[5-[2-(cyanomethylamino)ethyl]pyridin-2-yl]-3-(5-cyclopropyl-2-methylpyrazol-3-yl)oxybenzonitrile] fall in the same range of IC50: 10 to 1000 nM for the first, 10 to 1000 nM for the second.

`N#Cc1ccc(-n2cc(CCN)cn2)c(Oc2cnnc(N3CCOCC3)c2)c1` [Compound 282, 4-[4-(2-aminoethyl)pyrazol-1-yl]-3-(6-morpholin-4-ylpyridazin-4-yl)oxybenzonitrile] and `N#Cc1ccc(-n2cc(CCN)cn2)c(Oc2cnnc(N3CCCC3)c2)c1` [Compound 284, 4-[4-(2-Aminoethyl)pyrazol-1-yl]-3-(6-pyrrolidin-1-ylpyridazin-4-yl)oxybenzonitrile] fall in the same range of IC50: 10 to 1000 nM for the first, 10 to 1000 nM for the second.

First: N#Cc1ccc(-n2cc(CCN)cn2)c(Oc2cnnc(N3CCCCC3)c2)c1 [Compound 283, 4-[4-(2-aminoethyl)pyrazol-1-yl]-3-(6-piperidin-1-ylpyridazin-4-yl)oxybenzonitrile]
Second: CCc1cc(Oc2cc(C#N)ccc2-c2ncc(CCN)cn2)n(C)n1 [Compound 293, 4-[5-(2-aminoethyl)pyrimidin-2-yl]-3-(5-ethyl-2-methylpyrazol-3-yl)oxybenzonitrile]
The IC50 of the first is higher: 10 to 1000 nM for the first, < 10 nM for the second.

Compared with `Cn1nc(-c2ccccc2)cc1Oc1cc(C#N)ccc1-c1cnc(CN)cn1` [Compound 290, 4-[5-(aminomethyl)pyrazin-2-yl]-3-(2-methyl-5-phenylpyrazol-3-yl)oxybenzonitrile], `Cn1nc(-c2ccccc2)cc1Oc1cc(C#N)ccc1-c1cc2c(cn1)CNCC2` [Compound 291, 3-(2-methyl-5-phenylpyrazol-3-yl)oxy-4-(5,6,7,8-tetrahydro-2,7-naphthylidin-3-yl)benzonitrile] is higher in IC50: 10 to 1000 nM for the first, > 1000 nM for the second.

`Cn1nc(-c2ccccc2)cc1Oc1cc(C#N)ccc1-c1ncc2c(n1)CCNC2` [Compound 292, 3-(2-methyl-5-phenylpyrazol-3-yl)oxy-4-(5,6,7,8-tetrahydropyrido[4,3-d]pyrimidin-2-yl)benzonitrile] was tested, and the IC50 was 10 to 1000 nM.
